Experiments:
[1] = tested on: IL-6; assay: In vivo inflammation study, LPS stimulated mouse model, serum IL-6 by ELISA; parameters: species or system BALB/c Albino male mice; settings: 12 h before LPS
Description: (§1) To explore the anti-inflammatory properties of the new aspirin derivative in NP formulation in vivo, we used mice stimulated with lipopolysaccharide (LPS). […] In our studies following similar protocol in C57BL/6 or BALB/c (albino) mice, we observed enhanced levels of TNF-α and IL-6 in the serum after intraperitonial administration of 100 μg of LPS per animal and the levels peaked at 1.5 and 3 h, respectively for TNF-α and IL-6. Next, 8 week old BALB/c male mice were administered with saline or aspirin (20 mg/kg) or NT-(Asp)4-NP (20 mg/kg with respect to aspirin) or T-(Asp)4-NP (20 mg/kg with respect to aspirin) by i.v. injections and after 12 h, these animals were subsequently treated with intraperitonially injected LPS for 1.5 h and 3 h (FIG. 3A). Serum samples were isolated from the treated animals and pro-inflammatory and anti-inflammatory cytokine levels in the serum samples were evaluated by the enzyme-linked immunosorbent assay (ELISA).
(§2) Anti-inflammatory properties of T/NT-(Asp)4-NPs and aspirin were evaluated in LPS stimulated mouse model. […] The absorbance of the product formed was recorded at 450 nm using a BioTek Synergy HT well plate reader.

[2] = tested on: TNF-α; assay: In vivo inflammation study, LPS stimulated mouse model, serum TNF-α by ELISA; parameters: species or system BALB/c Albino male mice; settings: 20 mg/kg (with respect to aspirin) i.v.
Description: as §1, §2

CC(=O)Oc1ccccc1C(=O)O [aspirin, acetylsalicylic acid]
serum IL-6 level compared to only LPS ([1]; 20 mg/kg (with respect to aspirin) i.v., LPS for 1.5 h): significantly reduced
serum IL-6 level compared to LPS alone ([1]; 20 mg/kg i.v., LPS for 3 h): reduced IL-6 levels
serum TNF-α level compared to only LPS ([2]; 12 h before LPS i.p., LPS for 1.5 h): non-significant
serum TNF-α level ([2]; 12 h before LPS, LPS for 3 h): did not show any significant differences

— patent publication US20170087167A1, “MODIFICATION OF DRUGS FOR INCORPORATION INTO NANOPARTICLES” (UNIVERSITY OF GEORGIA RESEARCH FOUNDATION, INC., priority 2015, published 2017)
